Test results as given in paper PMC4907692, “Engineering vanilloid-sensitivity into the rat TRPV2 channel” (eLife, 2016).

How the values were obtained:
Type in all cases: cell-based
Conditions in all cases: 100 nM RTx
[1] = target: T1, WT TRPV2 (Rattus norvegicus, UniProt Q9WUD2); experiment: Two-electrode voltage-clamp in Xenopus oocytes, WT TRPV2
T1 construct: expressed in transfected cells; host or cells: Xenopus oocytes (cRNA injection, pGEM-HE)
Text: (§1) To further investigate the putative vanilloid binding pocket in TRPV1, we inspected the cryo-EM structure of TRPV1, looking for residues that are located nearby to the putative RTx density (Figure 1B; regions/residues highlighted in yellow) and that differ between TRPV1 and TRPV2 channels (Figure 3—figure supplement 1; regions highlighted in magenta). […] To quantify the contribution of each of these residues to TRPV1 channel activation by RTx under our experimental conditions, we mutated each to the corresponding residue in TRPV2. We then expressed each construct in oocytes and used the two electrode voltage-clamp technique to study activation by RTx and by the non-specific TRPV channel activator 2-APB. We recorded time courses for channel activation by each agonist while stepping the membrane potential from −60 to +60 mV every 3 s from a holding potential of 0 mV using an external recording solution containing 100 mM KCl (internal K^+ concentration in a healthy oocyte is 100 mM) (Figure 3A, left). We also recorded current-voltage (I-V) relations by stepping over a wider range of voltages in the absence and presence of activators, or in the presence of ruthenium red (RR), a non-specific inhibitor of TRP channels (Figure 3A, right). […]

[2] = target: T2, TRPV1 S512F/M547L (Rattus norvegicus, UniProt O35433, M547L/S512F); experiment: Two-electrode voltage-clamp in Xenopus oocytes, TRPV1 S512F/M547L
T2 construct: expressed in transfected cells; host or cells: Xenopus oocytes (cRNA injection)
Text: as §1

[3] = target: T3, TRPV2 F472S/L510T (Rattus norvegicus, UniProt Q9WUD2, F472S/L510T); experiment: Two-electrode voltage-clamp in Xenopus oocytes, TRPV2 F472S/L510T
T3 construct: expressed in transfected cells; host or cells: Xenopus oocytes (cRNA injection)
Text: as §1

[4] = target: T4, TRPV1 S512F/T550L (Rattus norvegicus, UniProt O35433, S512F/T550L); experiment: Two-electrode voltage-clamp in Xenopus oocytes, TRPV1 S512F/T550L
T4 construct: expressed in transfected cells; host or cells: Xenopus oocytes (cRNA injection)
Text: as §1

[5] = target: T5, TRPV1 triple mutant that left S512 intact (Rattus norvegicus, UniProt O35433, E570Q/M547L/T550L); experiment: Two-electrode voltage-clamp in Xenopus oocytes, TRPV1 triple mutant with S512 intact
T5 construct: expressed in transfected cells; host or cells: Xenopus oocytes (cRNA injection)
Text: as §1

T4 sequence (O35433 whole entry S512F/T550L): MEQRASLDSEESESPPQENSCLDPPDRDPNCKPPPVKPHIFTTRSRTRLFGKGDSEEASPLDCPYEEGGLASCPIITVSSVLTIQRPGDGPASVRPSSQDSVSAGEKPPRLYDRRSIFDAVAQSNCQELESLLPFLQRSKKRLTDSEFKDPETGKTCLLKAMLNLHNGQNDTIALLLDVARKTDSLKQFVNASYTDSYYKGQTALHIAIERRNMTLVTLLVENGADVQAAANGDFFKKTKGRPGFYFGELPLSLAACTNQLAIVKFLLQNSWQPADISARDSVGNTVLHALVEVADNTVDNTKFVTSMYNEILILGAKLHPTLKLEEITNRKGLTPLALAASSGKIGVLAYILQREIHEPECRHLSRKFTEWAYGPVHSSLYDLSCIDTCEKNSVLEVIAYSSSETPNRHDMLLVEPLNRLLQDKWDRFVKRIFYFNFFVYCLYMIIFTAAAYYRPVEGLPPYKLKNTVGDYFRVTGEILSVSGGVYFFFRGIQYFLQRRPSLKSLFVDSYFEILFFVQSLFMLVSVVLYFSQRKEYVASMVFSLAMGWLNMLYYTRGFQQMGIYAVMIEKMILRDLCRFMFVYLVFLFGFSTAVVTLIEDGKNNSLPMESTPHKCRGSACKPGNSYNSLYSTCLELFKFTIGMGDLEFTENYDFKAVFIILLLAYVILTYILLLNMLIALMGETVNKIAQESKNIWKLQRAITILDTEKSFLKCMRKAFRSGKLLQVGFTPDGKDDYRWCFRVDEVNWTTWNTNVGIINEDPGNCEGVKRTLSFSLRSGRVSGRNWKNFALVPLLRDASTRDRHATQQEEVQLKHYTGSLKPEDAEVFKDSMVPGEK
T1 sequence (Q9WUD2 whole entry): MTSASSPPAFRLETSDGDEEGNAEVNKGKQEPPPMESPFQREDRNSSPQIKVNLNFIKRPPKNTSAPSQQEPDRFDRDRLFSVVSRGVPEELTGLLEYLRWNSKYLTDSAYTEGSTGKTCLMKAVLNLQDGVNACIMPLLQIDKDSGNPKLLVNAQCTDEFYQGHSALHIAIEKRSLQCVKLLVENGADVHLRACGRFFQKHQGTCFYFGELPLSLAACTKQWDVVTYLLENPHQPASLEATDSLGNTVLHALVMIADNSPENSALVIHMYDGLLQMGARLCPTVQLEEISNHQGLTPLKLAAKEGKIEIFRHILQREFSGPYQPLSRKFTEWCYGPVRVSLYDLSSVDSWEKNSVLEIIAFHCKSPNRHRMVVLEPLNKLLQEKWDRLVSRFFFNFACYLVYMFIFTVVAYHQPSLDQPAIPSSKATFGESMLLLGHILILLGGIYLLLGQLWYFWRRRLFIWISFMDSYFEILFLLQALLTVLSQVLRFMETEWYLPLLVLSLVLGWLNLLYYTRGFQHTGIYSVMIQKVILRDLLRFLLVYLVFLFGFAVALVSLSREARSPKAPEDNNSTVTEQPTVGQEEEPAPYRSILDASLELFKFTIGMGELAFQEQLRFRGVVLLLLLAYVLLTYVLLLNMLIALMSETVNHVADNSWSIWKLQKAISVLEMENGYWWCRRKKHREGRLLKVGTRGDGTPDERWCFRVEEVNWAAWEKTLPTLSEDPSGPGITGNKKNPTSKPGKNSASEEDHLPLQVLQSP
T2 sequence (O35433 whole entry S512F/M547L): as the sequence (O35433 whole entry S512F/T550L) above, with M547L, L550T counted along it
T3 sequence (Q9WUD2 whole entry F472S/L510T): as the sequence (Q9WUD2 whole entry) above, with F472S, L510T counted along it
T5 sequence (O35433 whole entry M547L/T550L/E570Q): as the sequence (O35433 whole entry S512F/T550L) above, with F512S, M547L, E570Q counted along it

## C=C(C)[C@]12C[C@@H](C)[C@@]34O[C@](Cc5ccccc5)(O[C@@H]1[C@@H]3C=C(COC(=O)Cc1ccc(O)c(OC)c1)C[C@]1(O)C(=O)C(C)=C[C@@H]41)O2 [RTx, resiniferatoxin]
[1]
  channel activation by RTx: completely insensitive
[2]
  channel activation by RTx: lost sensitivity
[3]
  channel activation by RTx: sensitive to RTx
[4]
  channel activation by RTx: lost sensitivity
[5]
  channel activation by RTx: retained sensitivity
